Assay [1] concerns the target T1, Calpain-1 catalytic subunit (Homo sapiens, UniProt P07384).
T1 sequence (P07384 whole entry): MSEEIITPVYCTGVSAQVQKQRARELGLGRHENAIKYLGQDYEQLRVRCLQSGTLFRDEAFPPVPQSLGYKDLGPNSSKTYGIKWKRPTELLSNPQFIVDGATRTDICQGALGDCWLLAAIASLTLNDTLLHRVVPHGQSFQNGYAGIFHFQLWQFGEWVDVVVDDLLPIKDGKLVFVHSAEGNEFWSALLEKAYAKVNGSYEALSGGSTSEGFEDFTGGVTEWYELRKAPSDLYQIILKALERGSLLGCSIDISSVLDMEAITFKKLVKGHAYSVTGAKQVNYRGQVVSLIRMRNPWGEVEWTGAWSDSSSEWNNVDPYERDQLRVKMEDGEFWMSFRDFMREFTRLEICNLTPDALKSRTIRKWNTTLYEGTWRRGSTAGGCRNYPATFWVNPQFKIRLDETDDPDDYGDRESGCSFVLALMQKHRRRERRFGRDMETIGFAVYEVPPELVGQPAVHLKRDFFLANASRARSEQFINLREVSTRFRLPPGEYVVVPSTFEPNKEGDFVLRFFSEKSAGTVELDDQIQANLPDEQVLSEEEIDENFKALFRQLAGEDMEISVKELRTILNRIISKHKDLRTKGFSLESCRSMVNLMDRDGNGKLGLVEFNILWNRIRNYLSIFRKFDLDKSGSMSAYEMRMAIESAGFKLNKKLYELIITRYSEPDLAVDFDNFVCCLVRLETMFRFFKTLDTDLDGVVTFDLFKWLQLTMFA
Kind of assay: Tested for inhibitory activity against calpain.

For assay [2], the target named is T1, Calpain-1 catalytic subunit. Nature of the assay: Tested for inhibitory activity against calpain; NA means Not active.
For another assay, the target named is Cathepsin B (Bos taurus, UniProt P07688). Nature of the assay: Tested for inhibitory activity against bovine cathepsin B.
In assay [3] the target is T1, Calpain-1 catalytic subunit. Nature of the assay: Tested for inhibitory activity against calpain.

From ChEMBL document CHEMBL1131841, “Hydroxyoxazolidines as alpha-aminoacetaldehye equivalents: novel inhibitors of calpain” (Bioorg Med Chem Lett, 1999) come the findings set out here.

Each structure is given as a SMILES string. Where a SMILES comes first, the peptide text is derived from it. [ ]: non-standard residue; d: D form. The star is where a group is joined. ξ: configuration not given here. NMeF = CN[C@@H](Cc1ccccc1)C(=O)O; Cbz = O=C(OCc1ccccc1)*; ξV = CC(C)C(N)C(=O)O

Usually Ki stands for the dissociation constant of the complex between target and ligand, obtained from inhibition or displacement. The low end stands for higher affinity, the high end for lower affinity. The compound `O=C(N[C@H]1CCC[C@H]2O[C@@H](O)[C@H](Cc3ccccc3)N2C1=O)OCc1ccccc1.O=C(N[C@H]1CCC[C@H]2O[C@H](O)[C@@H](Cc3ccccc3)N2C1=O)OCc1ccccc1` came in with a Ki in assay [1] of 1.5 µM.
Still for that read-out and setting: the result for `O=C1c2ccccc2C(=O)N1[C@H]1CCC[C@H]2O[C@@H](O)[C@H](Cc3ccccc3)N2C1=O.O=C1c2ccccc2C(=O)N1[C@H]1CCC[C@H]2O[C@H](O)[C@@H](Cc3ccccc3)N2C1=O` reads 3.2 µM.
In the case of `CC(C)C(NC(=O)OCc1ccccc1)C(=O)N1C(=O)C[C@H](O)[C@@H]1Cc1ccccc1` (stereo not given in full), the inhibition constant (Ki) result in assay [2] is given as “Not Active”.
Consider `CC(C)C(NC(=O)OCc1ccccc1)C(=O)N1CO[C@@H](O)[C@@H]1Cc1ccccc1` (stereo not given in full), for which the Ki is 0.033 µM in assay [1] and 0.12 µM at Cathepsin B.
`CC(C)[C@@H](NC(=O)OCc1ccccc1)C(=O)N1CCO[C@@H](O)[C@@H]1Cc1ccccc1` returned a Ki in assay [1] of 56 µM.
Take `CC(C)C(NC(=O)OCc1ccccc1)C(=O)N1CC[C@@H](O)[C@@H]1Cc1ccccc1` (stereo not given in full): the Ki result in assay [2] is listed as “Not Active”.
In turn, `CC(C)C(NC(=O)OCc1ccccc1)C(=O)N(CO)[C@H](C=O)Cc1ccccc1` (stereo not given in full) showed a Ki in assay [1] of 0.4 µM.
In the case of `CC(=O)O[C@@H]1OCN(C(=O)C(NC(=O)OCc2ccccc2)C(C)C)[C@H]1Cc1ccccc1` (stereo not given in full), the inhibitory constant (Ki) in assay [3] amounted to 2 µM.
On to `CC(C)C(NC(=O)OCc1ccccc1)C(=O)N(C)[C@H](C=O)Cc1ccccc1` (stereo not given in full) (Cbz-[ξV]-[NMeF]-aldehyde), for which, in assay [1], the Ki is 0.4 µM.
